From patent EP0625155B1, “PYRROLOIMIDAZOLYL AND IMIDAZOPYRIDINYL SUBSTITUTED 1H-BENZIMIDAZOLE DERIVATIVES AS AROMATASE INHIBITORS” (JANSSEN PHARMACEUTICA N.V., priority 1992, dated 1993)

The compounds below were run on Plasma estradiol (assay: Estradiol production in PMSG-injected rats). Details: Rattus norvegicus; 1 mg/kg by gavage three days after 200 I.U. PMSG s.c.; plasma 2 h after administration; % non-recovered relative to untreated controls; read-out: Estradiol in vivo (% inhibition) 1 mg/kg / 2h.
Design: species or system Female Wistar rats
Procedure: Female Wistar rats weighing 150 g were injected with 200 I.U. Pregnant Mare's Serum Gonadotropin (PMSG) (Folligon®) subcutaneously. Three days later 1 mg/kg of the test compound, dissolved in 20% polyethyleneglycol in water, was administered by gavage. Control animals received 20% polyethyleneglycol only. Two hours after drug or placebo administration the animals were killed by decapitation and trunk blood was collected in heparinized tubes. Plasma estradiol was measured using a direct fluorescence immunoassay.

Question: With `CCCCn1cnc2ccc(C3CCc4cncn43)cc21` (racemic) [compound 22] as the compound, how does the inhibition at 1 mg/kg read?
Answer: Its inhibition at 1 mg/kg is 91%.

Question: With `Cn1cnc2ccc(C3CCc4cncn43)cc21` (racemic) [compound 23] as the compound, how does the inhibition at 1 mg/kg read?
Answer: Its inhibition at 1 mg/kg is 78%.

Question: How did the inhibition at 1 mg/kg turn out when `CCCCCn1cnc2ccc(C3CCc4cncn43)cc21` (racemic) [compound 31] was run?
Answer: The inhibition at 1 mg/kg was 69%.

Question: For `CCCCCCn1cnc2ccc(C3CCc4cncn43)cc21` (racemic) [compound 32], which inhibition at 1 mg/kg is on record?
Answer: The inhibition at 1 mg/kg was 65%.

Question: For `CCCn1cnc2ccc(C3CCc4cncn43)cc21` (racemic) [compound 33], which inhibition at 1 mg/kg is on record?
Answer: The inhibition at 1 mg/kg was 82%.

Question: Which inhibition at 1 mg/kg does the source give for `CCCCn1c(CC)nc2ccc(C3CCc4cncn43)cc21` (racemic) [compound 34] here?
Answer: The inhibition at 1 mg/kg was 80%.

Question: For `c1cc2ncn(C3CCCCC3)c2cc1C1CCc2cncn21` (racemic) [compound 35], which inhibition at 1 mg/kg is on record?
Answer: The inhibition at 1 mg/kg was 77%.

Question: Which inhibition at 1 mg/kg does the source give for `c1ccc(-n2cnc3ccc(C4CCc5cncn54)cc32)cc1` (racemic) [compound 37] here?
Answer: The inhibition at 1 mg/kg was 31%.

Question: `c1ccc(Cn2cnc3ccc(C4CCc5cncn54)cc32)cc1` (racemic) [compound 38] was tested. Which inhibition at 1 mg/kg did it give?
Answer: The inhibition at 1 mg/kg was 42%.

Question: How did the inhibition at 1 mg/kg turn out when `CCn1cnc2ccc(C3CCc4cncn43)cc21` (racemic) [compound 39] was run?
Answer: The inhibition at 1 mg/kg was 90%.

Question: With `c1cc2ncn(C3CC3)c2cc1C1CCc2cncn21` (racemic) [compound 41, (±)-1-cyclopropyl-6-(6,7-dihydro-5H-pyrrolo[1,2-c]imidazol-5-yl)-1H-benzimidazole dinitrate] as the compound, how does the inhibition at 1 mg/kg read?
Answer: The inhibition at 1 mg/kg was 89%.

Question: `CC(C)n1cnc2ccc(C3CCc4cncn43)cc21` (racemic) [compound 42] was tested. Which inhibition at 1 mg/kg did it give?
Answer: The inhibition at 1 mg/kg was 93%.

Question: Which inhibition at 1 mg/kg does the source give for `c1ccc(-c2nc3cc(C4CCc5cncn54)ccc3[nH]2)cc1` (racemic) [compound 43] here?
Answer: Its inhibition at 1 mg/kg is 54%.

Question: `CCCCn1c(NC(=O)OC)nc2ccc(C3CCc4cncn43)cc21` (racemic) [compound 44] was tested. Which inhibition at 1 mg/kg did it give?
Answer: The inhibition at 1 mg/kg was 66%.

Question: Which inhibition at 1 mg/kg does the source give for `c1nc2cc(C3CCc4cncn43)ccc2[nH]1` (racemic) [compound 46] here?
Answer: Its inhibition at 1 mg/kg is 77%.

Question: How did the inhibition at 1 mg/kg turn out when `Cc1nc2cc(C3CCc4cncn43)ccc2[nH]1` (racemic) [compound 47, (±)-5-(6,7-dihydro-5H-pyrrolo-[1,2-c]imidazol-5-yl)-2-methyl-1H-benzimidazole] was run?
Answer: The inhibition at 1 mg/kg was 72%.

Question: `CCCCn1c(O)nc2ccc(C3CCc4cncn43)cc21` (racemic) [compound 48, (±)-1-butyl-6-(6,7-dihydro-5H-pyrrolo[1,2-c]imidazol-5-yl)-1H-benzimidazol-2-ol] was tested. Which inhibition at 1 mg/kg did it give?
Answer: The inhibition at 1 mg/kg was 77%.

Question: With `C=CCn1cnc2ccc(C3CCc4cncn43)cc21` (racemic) [compound 49] as the compound, how does the inhibition at 1 mg/kg read?
Answer: The inhibition at 1 mg/kg was 81%.

Each compound was assayed on Plasma testosterone (assay: Testosterone production in LHRH/ACTH-injected rats). Details: Rattus norvegicus, po; 10 mg/kg orally by gavage; LHRH/ACTH injected 1 h later; plasma 2 h after stimulation; % non-recovered relative to untreated controls; read-out: Testosterone in vivo (% inhibition) 10 mg/kg / 2h.
Design: species or system Adult male Wistar rats
Procedure: (§1) Adult male Wistar rats weighing 250 g were starved 24 h before the start of the experiment. Between 8 and 9 a.m. 10 mg/kg of the test compounds were administered orally by gavage. One hour later, the animals were injected intramuscularly with 40 ng of Luteinizing Hormone Releasing Hormone (LHRH) (Receptal®) and 25 µg of Adrenocorticotropic Hormone (ACTH1-24) (Cortrosyn®). To avoid stress, the animals were also anesthetized with 7.5 mg of pentobarbital. Two hours after stimulation, the animals were killed by decapitation and trunk blood was collected in heparinized tubes. […] Corticosterone was measured using radio immunoassay with ^3H-labelled corticosterone and dextrane-coated charcoal to separate bound and free steroid.

Question: With `CCCCn1cnc2ccc(C3CCc4cncn43)cc21` (racemic) [compound 22] as the compound, how does the inhibition at 10 mg/kg read?
Answer: The inhibition at 10 mg/kg was 92.5%.

Question: `Cn1cnc2ccc(C3CCc4cncn43)cc21` (racemic) [compound 23] was tested. Which inhibition at 10 mg/kg did it give?
Answer: Its inhibition at 10 mg/kg is 81%.

Question: Which inhibition at 10 mg/kg does the source give for `CCCCCn1cnc2ccc(C3CCc4cncn43)cc21` (racemic) [compound 31] here?
Answer: The inhibition at 10 mg/kg was 91%.

Question: `CCCCCCn1cnc2ccc(C3CCc4cncn43)cc21` (racemic) [compound 32] was tested. Which inhibition at 10 mg/kg did it give?
Answer: The inhibition at 10 mg/kg was 67%.

Question: How did the inhibition at 10 mg/kg turn out when `CCCn1cnc2ccc(C3CCc4cncn43)cc21` (racemic) [compound 33] was run?
Answer: The inhibition at 10 mg/kg was 98%.

Question: With `CCCCn1c(CC)nc2ccc(C3CCc4cncn43)cc21` (racemic) [compound 34] as the compound, how does the inhibition at 10 mg/kg read?
Answer: The inhibition at 10 mg/kg was 12%.

Question: For `c1cc2ncn(C3CCCCC3)c2cc1C1CCc2cncn21` (racemic) [compound 35], which inhibition at 10 mg/kg is on record?
Answer: The inhibition at 10 mg/kg was 92%.

Question: For `c1ccc(-n2cnc3ccc(C4CCc5cncn54)cc32)cc1` (racemic) [compound 37], which inhibition at 10 mg/kg is on record?
Answer: Its inhibition at 10 mg/kg is 96%.

Question: How did the inhibition at 10 mg/kg turn out when `c1ccc(Cn2cnc3ccc(C4CCc5cncn54)cc32)cc1` (racemic) [compound 38] was run?
Answer: Its inhibition at 10 mg/kg is 80%.

Question: With `CCn1cnc2ccc(C3CCc4cncn43)cc21` (racemic) [compound 39] as the compound, how does the inhibition at 10 mg/kg read?
Answer: The inhibition at 10 mg/kg was 93%.

Question: `c1cc2ncn(C3CC3)c2cc1C1CCc2cncn21` (racemic) [compound 41, (±)-1-cyclopropyl-6-(6,7-dihydro-5H-pyrrolo[1,2-c]imidazol-5-yl)-1H-benzimidazole dinitrate] was tested. Which inhibition at 10 mg/kg did it give?
Answer: Its inhibition at 10 mg/kg is 91%.

Question: With `CC(C)n1cnc2ccc(C3CCc4cncn43)cc21` (racemic) [compound 42] as the compound, how does the inhibition at 10 mg/kg read?
Answer: The inhibition at 10 mg/kg was 98%.

Question: With `c1ccc(-c2nc3cc(C4CCc5cncn54)ccc3[nH]2)cc1` (racemic) [compound 43] as the compound, how does the inhibition at 10 mg/kg read?
Answer: Its inhibition at 10 mg/kg is 64%.

Question: With `CCCCn1c(NC(=O)OC)nc2ccc(C3CCc4cncn43)cc21` (racemic) [compound 44] as the compound, how does the inhibition at 10 mg/kg read?
Answer: Its inhibition at 10 mg/kg is 66%.

Question: Which inhibition at 10 mg/kg does the source give for `c1nc2cc(C3CCc4cncn43)ccc2[nH]1` (racemic) [compound 46] here?
Answer: Its inhibition at 10 mg/kg is 78%.

Question: `Cc1nc2cc(C3CCc4cncn43)ccc2[nH]1` (racemic) [compound 47, (±)-5-(6,7-dihydro-5H-pyrrolo-[1,2-c]imidazol-5-yl)-2-methyl-1H-benzimidazole] was tested. Which inhibition at 10 mg/kg did it give?
Answer: Its inhibition at 10 mg/kg is 85%.

Question: `CCCCn1c(O)nc2ccc(C3CCc4cncn43)cc21` (racemic) [compound 48, (±)-1-butyl-6-(6,7-dihydro-5H-pyrrolo[1,2-c]imidazol-5-yl)-1H-benzimidazol-2-ol] was tested. Which inhibition at 10 mg/kg did it give?
Answer: The inhibition at 10 mg/kg was 93%.

Question: Which inhibition at 10 mg/kg does the source give for `C=CCn1cnc2ccc(C3CCc4cncn43)cc21` (racemic) [compound 49] here?
Answer: The inhibition at 10 mg/kg was 90%.

Each compound was assayed on Corticosterone (assay: Corticosterone production in LHRH/ACTH-injected rats). Details: Rattus norvegicus, po; 10 mg/kg orally by gavage; LHRH/ACTH injected 1 h later; plasma 2 h after stimulation; % non-recovered relative to untreated controls; read-out: Corticosterone in vivo (% inhibition) 10 mg/kg / 2h.
Design: species or system Adult male Wistar rats
Procedure: as §1

Question: Which inhibition at 10 mg/kg does the source give for `CCCCn1cnc2ccc(C3CCc4cncn43)cc21` (racemic) [compound 22] here?
Answer: Its inhibition at 10 mg/kg is 35%.

Question: Which inhibition at 10 mg/kg does the source give for `Cn1cnc2ccc(C3CCc4cncn43)cc21` (racemic) [compound 23] here?
Answer: Its inhibition at 10 mg/kg is 31%.

Question: `CCCCCn1cnc2ccc(C3CCc4cncn43)cc21` (racemic) [compound 31] was tested. Which inhibition at 10 mg/kg did it give?
Answer: Its inhibition at 10 mg/kg is 28%.

Question: `CCCCCCn1cnc2ccc(C3CCc4cncn43)cc21` (racemic) [compound 32] was tested. Which inhibition at 10 mg/kg did it give?
Answer: The inhibition at 10 mg/kg was 37%.

Question: Which inhibition at 10 mg/kg does the source give for `CCCn1cnc2ccc(C3CCc4cncn43)cc21` (racemic) [compound 33] here?
Answer: The inhibition at 10 mg/kg was 55%.

Question: For `CCCCn1c(CC)nc2ccc(C3CCc4cncn43)cc21` (racemic) [compound 34], which inhibition at 10 mg/kg is on record?
Answer: The inhibition at 10 mg/kg was 21%.

Question: With `c1cc2ncn(C3CCCCC3)c2cc1C1CCc2cncn21` (racemic) [compound 35] as the compound, how does the inhibition at 10 mg/kg read?
Answer: The inhibition at 10 mg/kg was 22%.

Question: `c1ccc(-n2cnc3ccc(C4CCc5cncn54)cc32)cc1` (racemic) [compound 37] was tested. Which inhibition at 10 mg/kg did it give?
Answer: Its inhibition at 10 mg/kg is 22%.

Question: Which inhibition at 10 mg/kg does the source give for `c1ccc(Cn2cnc3ccc(C4CCc5cncn54)cc32)cc1` (racemic) [compound 38] here?
Answer: Its inhibition at 10 mg/kg is 7%.

Question: `CCn1cnc2ccc(C3CCc4cncn43)cc21` (racemic) [compound 39] was tested. Which inhibition at 10 mg/kg did it give?
Answer: The inhibition at 10 mg/kg was 39%.

Question: With `c1cc2ncn(C3CC3)c2cc1C1CCc2cncn21` (racemic) [compound 41, (±)-1-cyclopropyl-6-(6,7-dihydro-5H-pyrrolo[1,2-c]imidazol-5-yl)-1H-benzimidazole dinitrate] as the compound, how does the inhibition at 10 mg/kg read?
Answer: The inhibition at 10 mg/kg was 39%.

Question: For `CC(C)n1cnc2ccc(C3CCc4cncn43)cc21` (racemic) [compound 42], which inhibition at 10 mg/kg is on record?
Answer: The inhibition at 10 mg/kg was 33%.

Question: Which inhibition at 10 mg/kg does the source give for `c1ccc(-c2nc3cc(C4CCc5cncn54)ccc3[nH]2)cc1` (racemic) [compound 43] here?
Answer: Its inhibition at 10 mg/kg is 20%.

Question: How did the inhibition at 10 mg/kg turn out when `CCCCn1c(NC(=O)OC)nc2ccc(C3CCc4cncn43)cc21` (racemic) [compound 44] was run?
Answer: Its inhibition at 10 mg/kg is 10%.

Question: Which inhibition at 10 mg/kg does the source give for `c1nc2cc(C3CCc4cncn43)ccc2[nH]1` (racemic) [compound 46] here?
Answer: The inhibition at 10 mg/kg was 23%.

Question: `Cc1nc2cc(C3CCc4cncn43)ccc2[nH]1` (racemic) [compound 47, (±)-5-(6,7-dihydro-5H-pyrrolo-[1,2-c]imidazol-5-yl)-2-methyl-1H-benzimidazole] was tested. Which inhibition at 10 mg/kg did it give?
Answer: Its inhibition at 10 mg/kg is 4%.

Question: `CCCCn1c(O)nc2ccc(C3CCc4cncn43)cc21` (racemic) [compound 48, (±)-1-butyl-6-(6,7-dihydro-5H-pyrrolo[1,2-c]imidazol-5-yl)-1H-benzimidazol-2-ol] was tested. Which inhibition at 10 mg/kg did it give?
Answer: The inhibition at 10 mg/kg was 4%.

Question: With `C=CCn1cnc2ccc(C3CCc4cncn43)cc21` (racemic) [compound 49] as the compound, how does the inhibition at 10 mg/kg read?
Answer: The inhibition at 10 mg/kg was 13%.
